Tests used:
Type in all cases: in vivo
[1] = system: psoriasis mouse model; experiment: Psoriasis mouse model (Aldara cream): PASI score and spleen weight; details: Aldara cream psoriasis mice; intraperitoneal daily, Compound 1 20 mg/kg, Compound 2 10 mg/kg; FIG. 2
Experimental: (§1) The hair on the backs of 7-week-old mice was removed, and then 62.5 mg of Aldara cream was applied daily for 4 days. 1% DMSO and 5% kolliphor in PBS were mixed to be injected into the vehicle intraperitoneally daily. 20 mg/kg of Compound 1, 10 mg/kg of Compound 2, and 10 mg/kg of MTx were prepared in body weight×[…], which was injected intraperitoneally daily. After injection, the mice were left for 30 minutes for sufficient suppression of cannabinoid receptor 1, applied with Aldara cream, and then sacrificed on day 5 from day 1 at which the Aldara cream was first applied, and skin tissues were made into paraffin blocks. These were evenly cut into 4 μm thick pieces, and immunochemical staining was performed.

[2] = system: IL-1B; experiment: Contact dermatitis mouse model: IL-1β expression by immunohistochemical staining; details: oxazolone contact dermatitis mice; intraperitoneal daily, Compound 2 20 mg/kg, Compound 1 10 mg/kg; FIG. 8
Experimental: (§2) For immunohistochemical staining, the slides were placed in a 60° C. oven for 1 hour, rinsed with xylene solution for 5 minutes, 100% EtOH for 5 minutes, 70% EtOH for 5 minutes, distilled water, and PBS, then immersed in citrate buffer, placed in a 100° C. oven for 30 minutes, and slowly cooled at room temperature for 45 minutes. After rinsing with distilled water, the slides were soaked in PBS for 5 minutes, sprayed with 0.25% TritonX-100, and left for 10 minutes to disrupt the cell membrane and allow the antibodies to penetrate. After rinsing with 0.1% Tween 20 in PBS (hereinafter referred to as PBST), hydrogen peroxide block buffer (abcam59717) was sprayed and left for 10 minutes. […]
(§3) After removing hair from the ears of 7-week-old mice, on the day after hair removal (day 1), oxazolone (4-ethoxymethylene-2-phenyl-2-oxazolin-5-one, cat #E0753-1G, sigma-Aldrich) was mixed in acetone and olive oil in a concentration of 2%, which was then applied to the inner and outer sides of the ears by 5 μl each. […] Intraperitoneal injection was conducted daily by 20 mg/kg for Compound 2 and 10 mg/kg for Compound 1 with a 30 interval for sufficient suppression of cannabinoid receptor 1 after the injection, and then the size of the ears was measured, followed by application of oxazolone (on days 1 and 6). […]

[3] = system: contact dermatitis mouse model; experiment: Contact dermatitis mouse model: ear skin thickness by hematoxylin/eosin staining; details: oxazolone contact dermatitis mice; intraperitoneal daily, Compound 2 20 mg/kg, Compound 1 10 mg/kg; FIG. 7
Experimental: After removing hair from the ears of 7-week-old mice, on the day after hair removal (day 1), oxazolone (4-ethoxymethylene-2-phenyl-2-oxazolin-5-one, cat #E0753-1G, sigma-Aldrich) was mixed in acetone and olive oil in a concentration of 2%, which was then applied to the inner and outer sides of the ears by 5 μl each. 1% DMSO and 5% kolliphor in PBS were mixed to be injected into the vehicle intraperitoneally daily. Intraperitoneal injection was conducted daily by 20 mg/kg for Compound 2 and 10 mg/kg for Compound 1 with a 30 interval for sufficient suppression of cannabinoid receptor 1 after the injection, and then the size of the ears was measured, followed by application of oxazolone (on days 1 and 6). On day 6, 1% oxazolone was prepared and applied to the inner and outer side of the ears by 5 μl each, and on day 7, the mice were sacrificed, with the ears formed into paraffin blocks and then cut into 4 μm thick pieces to be placed on slides. […]
The slides were placed in a 60° C. oven for 1 hour, rinsed with xylene solution for 5 minutes, 100% EtOH for 5 minutes, 70% EtOH for 5 minutes, distilled water, and PBS, and then immersed in hematoxylin for 10 seconds and eosin for 3 seconds. […] Each section of skin tissue was photographed using a Leica microscope and then quantified by setting three sections per tissue as the average.

[4] = system: contact dermatitis mouse model; experiment: Contact dermatitis mouse model (oxazolone on ears): symptoms of dermatitis; details: oxazolone contact dermatitis mice; intraperitoneal daily, Compound 2 20 mg/kg, Compound 1 10 mg/kg; FIG. 6
Experimental: After removing hair from the ears of 7-week-old mice, on the day after hair removal (day 1), oxazolone (4-ethoxymethylene-2-phenyl-2-oxazolin-5-one, cat #E0753-1G, sigma-Aldrich) was mixed in acetone and olive oil in a concentration of 2%, which was then applied to the inner and outer sides of the ears by 5 μl each. 1% DMSO and 5% kolliphor in PBS were mixed to be injected into the vehicle intraperitoneally daily. Intraperitoneal injection was conducted daily by 20 mg/kg for Compound 2 and 10 mg/kg for Compound 1 with a 30 interval for sufficient suppression of cannabinoid receptor 1 after the injection, and then the size of the ears was measured, followed by application of oxazolone (on days 1 and 6). On day 6, 1% oxazolone was prepared and applied to the inner and outer side of the ears by 5 μl each, and on day 7, the mice were sacrificed, with the ears formed into paraffin blocks and then cut into 4 μm thick pieces to be placed on slides.
The 2% oxazolone used on day 1 was finally prepared in a volume of 800 μl for 20 mice, 16 mg of oxazolone was first dissolved in 160 μl of olive oil, then 640 μl of acetone was additionally mixed, and 10 μl of the mixture was applied on both ears, 5 μl for the front and 5 μl for the back per ear. […]

[5] = system: IL-17A; experiment: Contact dermatitis mouse model: IL-17A expression by immunohistochemical staining; details: oxazolone contact dermatitis mice; intraperitoneal daily, Compound 2 20 mg/kg, Compound 1 10 mg/kg; FIG. 9
Experimental: as §2, §3

[6] = system: psoriasis mouse model; experiment: Psoriasis mouse model: skin thickness by hematoxylin/eosin staining; details: Aldara cream psoriasis mice; intraperitoneal daily, Compound 1 20 mg/kg, Compound 2 10 mg/kg; FIG. 3
Experimental: as §1
The slides were placed in a 60° C. oven for 1 hour, rinsed with xylene solution for 5 minutes, 100% EtOH for 5 minutes, 70% EtOH for 5 minutes, distilled water, and PBS, and then immersed in hematoxylin for 10 seconds and eosin for 3 seconds. Afterwards, they were rinsed with 70% EtOH and 100% EtOH, immersed in xylene for 20 seconds, sprayed with mounting solution, and covered with a cover glass. Each section of the skin tissue was photographed using a Leica microscope and then quantified by setting three sections per tissue as the average.

[7] = system: IL-1ß; experiment: Psoriasis mouse model: IL-1β expression by immunohistochemical staining; details: Compound 1 20 mg/kg; for expression level of IL-1ß in the epidermis compared to vehicle group: Aldara cream psoriasis mice, intraperitoneal daily, Compound 2 10 mg/kg, FIG. 5
Experimental: as §1
For immunohistochemical staining, the slides were placed in a 60° C. oven for 1 hour, rinsed with xylene solution for 5 minutes, 100% EtOH for 5 minutes, 70% EtOH for 5 minutes, distilled water, and PBS, then immersed in citrate buffer, placed in a 100° C. oven for 30 minutes, and slowly cooled at room temperature for 45 minutes. After rinsing with distilled water, the slides were soaked in PBS for 5 minutes, sprayed with 0.25% TritonX-100, and left for 10 minutes to disrupt the cell membrane and allow the antibodies to penetrate. After rinsing with 0.1% Tween 20 in PBS (hereinafter referred to as PBST), hydrogen peroxide block buffer (abcam59717) was sprayed and left for 10 minutes. Afterwards, after rinsing with PBST, the slides were sprayed with 150 μl of normal blocking serum (VectastatinABC kit, PK-4001) mixed in 10 ml of PBS. The primary antibody was mixed with R.T.U animal free block and diluent (SP-5035) in 1:500, spread on the slides, and reacted in a refrigerator at 4° C. for 14 hours. After rinsing with PBST, the secondary antibody was applied for 1 hour and then HRP (VectastatinABC reagent) for 30 minutes. […]
(§4) The signals of TNF-α and IL-1B, stained brown, were quantified through immunohistochemical staining.

[8] = system: TNF-α; experiment: Psoriasis mouse model: TNF-α expression by immunohistochemical staining; details: Aldara cream psoriasis mice; intraperitoneal daily, Compound 1 20 mg/kg, Compound 2 10 mg/kg; FIG. 4
Experimental: as §1
as §2, with “penetrate.” for “penetrate. After rinsing with 0.1% Tween 20 in PBS (hereinafter referred to as PBST), hydrogen peroxide block buffer (abcam59717) was sprayed and left for 10 minutes.”
as §4

| Structure (SMILES) | PASI score compared to vehicle group [1] | spleen weight compared to vehicle group [1] | expression level of IL-1B in the epidermis compared to vehicle group [2] | thickness of the ear skin compared to vehicle group [3] | symptoms of contact dermatitis compared to vehicle group [4] | expression level of IL-17A compared to vehicle group [5] | thickness of the epidermis compared to vehicle group [6] | expression level of IL-1ß in the epidermis compared to vehicle group [7] | inhibitory effect on inflammatory factor expression, Compound 1 versus Compound 2 ([7]; psoriasis mice, comparison stated after the TNF-α and IL-1ß results, Compound 2 10 mg/kg intraperitoneal) | expression level of TNF-α in the epidermis compared to vehicle group [8] |
| --- | --- | --- | --- | --- | --- | --- | --- | --- | --- | --- |
| Cc1c(C(=O)C(=O)NCCO)nn(-c2ccc(Cl)cc2Cl)c1-c1ccc(Cl)cc1 [Compound 1, 2-(5-(4-chlorophenyl)-1-(2,4-dichlorophenyl)-4-methyl-1H-pyrazol-3-yl)-N-(2-hydroxyethyl)-2-oxoacetamide] | lower | decrease | significantly reduced | significantly reduced | reduced | significantly reduced | significantly reduced | significantly reduced | higher than that of Compound 2 | significantly reduced |
| Cc1c(/C=C/C(=O)NCc2cccc(Cl)c2)nn(-c2ccc(Cl)cc2Cl)c1-c1ccc(Cl)cc1 [Compound 2, (E)-N-(3-chlorobenzyl)-3-(5-(4-chlorophenyl)-1-(2,4-dichlorophenyl)-4-methyl-1H-pyrazol-3-yl) acrylamide] | lower | decrease | significantly reduced | significantly reduced | reduced | significantly reduced | significantly reduced | significantly reduced | – | significantly reduced |
